Test results reported in patent publication US8895509B2, “MIR-200 family induces mesenchymal-to-epithelial transition (MET) in ovarian cancer cells” (Georgia Tech Research Corporation, priority 2010, dated 2014).

Test system: HEY cells
Assay: sensitivity of transfected HEY cells to cisplatin
Format: cell-based, human
Conditions: cisplatin 0.1-50 μM
Protocol: Cultures of the mesenchymal HEY cells were transfected with a negative control (NC) miRNA or miR-429 using Lipofectamine 2000 (Invitrogen) and treated with increasing concentrations of cisplatin. (0.1, 0.5, 1, 3, 5, 7, 10, 15, 20, 30, 50 μM).

`N.N.[Cl][Pt][Cl]` [cisplatin] gave an IC50 (HEY cells transfected with miR-429) of 4.6 µM and an IC50 (HEY cells transfected with negative control (NC) miRNA) of 8.7 µM.
